Measured values from patent publication US8431556B2, “C-21-keto lupane derivatives preparation and use thereof” (Vertex Pharmaceuticals Incorporated, priority 2008, dated 2013).

These molecules were tested on HIV-1 (HIVIIIB) (assay: HIV-1 replication in MT2 cell line with and without 30% human serum (viral RT activity in supernatant)). Settings: Human immunodeficiency virus 1, MT2, MT-2 cells, with 30% human serum, average IC50 if tested more than once, read-out: MT-2 (HIVIIIB) with 30% HS IC50 range.
Format: cell-based
Summary of the method: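 MT2 cells infected with HIVIIIB at MOI 0.5 for 3 h, washed, then cultured with serially diluted compound in RPMI/10% FBS, with or without 30% human serum, at 37° C. Compound-containing medium refreshed at day 3. Replication measured as supernatant RT activity at day 5; IC50 and IC90 from curve fits.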

Compared with CC(C)C1=C2C3CCC4[C@@]5(C)CC[C@H](OC(=O)CC(C)(C)C(=O)O)C(C)(C)C5CC[C@@]4(C)[C@]3(C)CC[C@@]2(C(=O)Nc2ccccc2Cl)CC1=O (stereo partly drawn) [9-86, 3β-O-(3′,3′-Dimethylsuccinyl)-21-oxolup-18-en-28-oic acid N-2-chloro-phen-1-yl acetamide], CC(C)C1=C2C3CCC4[C@@]5(C)CC[C@H](OC(=O)CC(C)(C)C(=O)O)C(C)(C)C5CC[C@@]4(C)[C@]3(C)CC[C@@]2(C(=O)Nc2ccccc2C(C)C)CC1=O (stereo partly drawn) [9-87, 3β-O-(3′,3′-Dimethylsuccinyl)-21-oxolup-18-en-28-oic acid N-2-isopropyl-phen-1-yl acetamide] is higher in IC50: < 0.199 µM for the first, 0.2 to 0.999 µM for the second. The first is the more potent here.

CC(C)C1=C2C3CCC4[C@@]5(C)CC[C@H](OC(=O)CC(C)(C)C(=O)O)C(C)(C)C5CC[C@@]4(C)[C@]3(C)CC[C@@]2(C(=O)Nc2ccc(F)cc2)CC1=O (stereo partly drawn) [9-88, 3β-O-(3′,3′-Dimethylsuccinyl)-21-oxolup-18-en-28-oic acid N-4-fluoro-phen-1-yl acetamide] and Cc1cc(NC(=O)[C@@]23CC[C@]4(C)C(CCC5[C@@]6(C)CC[C@H](OC(=O)CC(C)(C)C(=O)O)C(C)(C)C6CC[C@]54C)C2=C(C(C)C)C(=O)C3)no1 (stereo partly drawn) [9-91, 3β-O-(3′,3′-Dimethylsuccinyl)-21-oxolup-18-en-28-oic acid N-(5-methyl-isoxazol-3-yl)-acetamide] cannot be ordered by IC50: < 0.199 µM for the first, < 0.199 µM for the second.

CC(C)C1=C2C3CCC4[C@@]5(C)CC[C@H](OC(=O)CC(C)(C)C(=O)O)C(C)(C)C5CC[C@@]4(C)[C@]3(C)CC[C@@]2(C(=O)Nc2ncc3ccccc3n2)CC1=O (stereo partly drawn) [9-89, 3β-O-(3′,3′-Dimethylsuccinyl)-21-oxolup-18-en-28-oic acid N-quinazolin-2-yl acetamide] and CC(C)C1=C2C3CCC4[C@@]5(C)CC[C@H](OC(=O)CC(C)(C)C(=O)O)C(C)(C)C5CC[C@@]4(C)[C@]3(C)CC[C@@]2(C(=O)Nc2nnn(C)n2)CC1=O (stereo partly drawn) [9-90, 3β-O-(3′,3′-Dimethylsuccinyl)-21-oxolup-18-en-28-oic acid N-(1-methyl-1H-tetrazol-3-yl)-acetamide] cannot be ordered by IC50: < 0.199 µM for the first, < 0.199 µM for the second.

CC(C)C1=C2C3CCC4[C@@]5(C)CC[C@H](OC(=O)CC(C)(C)C(=O)O)C(C)(C)C5CC[C@@]4(C)[C@]3(C)CC[C@@]2(C(=O)N2Cc3ccccc3C2)CC1=O (stereo partly drawn) [9-92, 3β-O-(3′,3′-Dimethylsuccinyl)-21-oxolup-18-en-28-oic acid N-(1,3-dihydro-isoindol-2-yl)-acetamide] and CC(C)C1=C2[C@H]3CC[C@@H]4[C@@]5(C)CC[C@H](OC(=O)CC(C)(C)C(=O)O)C(C)(C)[C@@H]5CC[C@@]4(C)[C@]3(C)CC[C@@]2(C(=O)N2CCC(F)(F)CC2)CC1=O [9-94, 3β-O-(3′,3′-Dimethylsuccinyl)-21-oxolup-18-en-28-oic acid N-4,4-difluoro-piperidine acetamide] cannot be ordered by IC50: < 0.199 µM for the first, < 0.199 µM for the second.

CC(C)C1=C2C3CCC4[C@@]5(C)CC[C@H](OC(=O)CC(C)(C)C(=O)O)C(C)(C)C5CC[C@@]4(C)[C@]3(C)CC[C@@]2(C(=O)NCC2CCC(F)(F)CC2)CC1=O (stereo partly drawn) [9-93, 3β-O-(3′,3′-Dimethylsuccinyl)-21-oxolup-18-en-28-oic acid N-(4,4-difluoro-cyclohexylmethyl)-acetamide] and CC(=O)N1CC2CCC(C1)N2C(=O)[C@@]12CC[C@]3(C)C(CCC4[C@@]5(C)CC[C@H](OC(=O)CC(C)(C)C(=O)O)C(C)(C)C5CC[C@]43C)C1=C(C(C)C)C(=O)C2 (stereo partly drawn) [9-95, 3β-O-(3′,3′-Dimethylsuccinyl)-21-oxolup-18-en-28-oic acid N-8-acetylamino-3,8-diaza-bicyclo[3.2.1]octane-3-acetamide] cannot be ordered by IC50: < 0.199 µM for the first, < 0.199 µM for the second.
